# Source: PMC10186355, “Discovery of 5′-Substituted 5-Fluoro-2′-deoxyuridine Monophosphate Analogs: A Novel Class of Thymidylate Synthase Inhibitors” (ACS Pharmacology & Translational Science, 2023)
# Molecular target: T1, recombinant human thymidylate synthase (hTS) (Homo sapiens, UniProt P04818)
# T1 construct: His tag (N); purchased Abcam ab95378
# Assay: cell-free human thymidylate synthase (hTS) inhibition assay
# Type: biochemical
# Conditions: 0.84 μM hTS, 50 μM dUMP, 250 μM mTHF, DHF formation at 340 nm, room temperature, pH 7.5
# Protocol: This assay measures TS-catalyzed conversion of dUMP and mTHF to dTMP and dihydrofolate (DHF), the latter of which uniquely absorbs strongly at 340 nm (Figures S1 and S2). […] Concentration–response curves were constructed by plotting the normalized reaction rates (calculated using data from the first 100 s after reaction initiation) versus log[inhibitor].
# The final concentrations of hTS, dUMP, and mTHF in the reaction systems were 0.84 μM, 50 μM, and 250 μM, respectively. The reaction rates were determined by following the change in the optical absorbance at 340 nm, which corresponded to the formation of the coproduct, DHF.
# Human Thymidylate Synthase Inhibition Assay
# Recombinant human thymidylate synthase (hTS) was purchased from Abcam (ab95378). The protein was
# His-tagged (N-terminal) and >95% pure by SDS-PAGE according to the vendor. dUMP (disodium salt)
# (F3503), 5,10-methylenetetrahydrofolate (mTHF, calcium salt , folitixorin calcium ) was purchased from
# Boc Sciences (B0084-007873), and all were used without further purification. The cell-free functional hTS
# assay protocol was modified from literature procedures :
# Inhibition assays were performed using a BioTek Synergy Neo2 plate reader equipped with a Xenon flash
# lamp and a photodiode array detector. The hTS reaction was conducted at room temperature in a buffer
# solution (pH 7.5) containing 50 mM Tris -HCl, 1 mM EDTA, 25 mM MgCl 2, and 5 mM HCHO. The
# reaction system (175 μL total volume, 1 cm optical path lengt h) contained 50 μM dUMP (primary
# substrate), 250 μM mTHF (co-substrate and enzyme cofactor), 0.84 μM hTS (enzyme), and decreasing
# Formation of the co -product, dihydrofolate, was monitored at 340 nm. Reaction rates were
# calculated by plotting t he absorbance at 340 nm against the reaction time and performing linear regression
# analysis to determ ine the slope. The reaction rates at different inhibitor concentrations were normalized to
# the reaction rate determined in the absence of inhibitor (100% enzymatic activity). Concentration-response
# curves were constructed by plotting t he resulting mean % enzymatic activity values (from at least three
# independent experiments) against log[inhibitor]. IC50 values were then calculated using non -linear
# regression (four -parameter logistic equation, see Equation 1 below) in the GraphPad Prism v.9 software.
# Equation 1: Y = Ymin + (Ymax – Ymin) / [1 + 10((logIC50 – X) × Hill Slope)]
# T1 sequence (P04818 whole entry): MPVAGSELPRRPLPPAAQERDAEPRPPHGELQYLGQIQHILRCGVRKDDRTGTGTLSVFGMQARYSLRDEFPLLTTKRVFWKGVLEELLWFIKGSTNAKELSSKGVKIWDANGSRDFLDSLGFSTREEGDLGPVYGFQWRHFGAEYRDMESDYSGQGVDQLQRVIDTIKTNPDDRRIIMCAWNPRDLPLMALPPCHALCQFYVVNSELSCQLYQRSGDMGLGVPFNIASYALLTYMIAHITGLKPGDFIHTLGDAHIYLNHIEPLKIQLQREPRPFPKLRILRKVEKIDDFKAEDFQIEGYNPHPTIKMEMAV
row,SMILES,IC50 [nM]
1,"C[C@@H](OP(=O)(O)O)[C@H]1O[C@@H](n2cc(F)c(=O)[nH]c2=O)C[C@@H]1O [Compound 1, 5′(R)-CH3 FdUMP]",1210
2,"O=c1[nH]c(=O)n([C@H]2C[C@H](O)[C@@H]([C@H](OP(=O)(O)O)C(F)(F)F)O2)cc1F [Compound 4, 5′(S)-CF3 FdUMP]",1240
3,"O=c1[nH]c(=O)n([C@H]2C[C@H](O)[C@@H]([C@@H](OP(=O)(O)O)C(F)(F)F)O2)cc1F [Compound 5, 5′(R)-CF3 FdUMP]",> 20000

# Next, values leading:
row,IC50 [nM],SMILES
1,> 20000,"C[C@H](OP(=O)(O)O)[C@H]1O[C@@H](n2cc(F)c(=O)[nH]c2=O)C[C@@H]1O [Compound 2, 5′(S)-CH3 FdUMP]"
2,> 20000,"CC(C)(OP(=O)(O)O)[C@H]1O[C@@H](n2cc(F)c(=O)[nH]c2=O)C[C@@H]1O [Compound 3, 5′-gem-(CH3)2 FdUMP]"

# Tested on: dihydropyrimidine dehydrogenase (DPD)
# Assay: not given
# Design: method as in PMID 9830621, PMID 31756363
# Conditions: cited from earlier work
row,SMILES,catabolic degradation in the liver by DPD
1,"O=c1[nH]cc(F)c(=O)[nH]1 [5-FU, 5-Fluorouracil]",up to 85%
